This is an account of results in US20260109712A1, “RIFAMYCINS FOR NONTUBERCULOUS MYCOBACTERIA” (priority 2022, published 2026).

The subject of data set [1] is M. abscessus ATCC 19977. The data set can be described thus: MIC assay in 96-well plate format, wild-type strain. The data set is classed as cell-based, Mycobacterium abscessus. The method, then: MIC determination was carried out in 96-well plate format as previously described.^[13-14] 96-well plates were initially set up with 100 μL of 7H9 per well. For each compound, a ten-point two-fold dilution series starting at twice the desired highest concentration was dispensed onto the 96-well plates using a Tecan D300e Digital Dispenser, with the DMSO concentration normalized to 2%. M. abscessus culture grown to mid-log phase (OD600=0.4-0.6) was diluted to OD600=0.1 (1×10^7 CFU/mL). […] Untreated control wells are included on each plate that contain bacteria suspension and 1% DMSO. Plates were sealed with parafilm, stored in boxes with wet paper towels and incubated at 37° C. with shaking (110 RPM). Plates were incubated for 3 days. To determine growth, OD600 was measured using a Tecan Infinite M200 plate reader on Day 0 and Day 3. Two biological replicates were performed. Clarithromycin was included in each experiment as a positive control.
For each well on the 96-well plate, bacterial growth was calculated by subtracting the Day 0 OD600 value from the Day 3 OD600 value. […] For compound-containing wells, percentage growth was calculated by dividing their growth values by the average drug-free bacterial growth for the compound series and multiplying by 100. For each compound series, we plotted percentage growth versus compound concentration.

Data set [2] in a line: Plasma protein binding assay (rapid equilibrium dialysis). The data set is classed as in vitro ADME. The settings on record: 4 h, 10000 ng/mL. The method, then:
DMSO stocks were spiked into plasma to a concentration of 10,000 ng/mL. 200 μL of spiked plasma was pipetted into the sample chamber of the rapid equilibrium dialysis (RED) cartridge. 350 μL of PBS was added to the adjacent cartridge. The plate containing the RED was sealed and incubated at 37° C. on the thermomixer at 300 RPM for 4 h. After incubation, 50 μL aliquots of plasma were removed and added to 50 μL of blank plasma in a deep well plate (1:1). Similarly, 50 μL aliquots of PBS were removed and added to 50 μL of blank plasma. This created an identical matrix between buffer and non-buffer samples. Samples were processed and quantified as specified in the LC-MS/MS analytical method.

The mark [3] stands for this setting: Mycobacterium abscessus ATCC 19977, Table 11, read-out: MIC.
The mark [4] stands for this setting: Mycobacteroides abscessus, ATCC19977, Table 15, heterocyclic aromatic carbamates, read-out: WT Mab MIC.
[5] abbreviates: Mycobacteroides abscessus, ATCC19977, Table 14, carbamate analogs, read-out: WT Mab MIC.

The structures appear in SMILES notation. Values after ≈ are worked out from the molar mass of the structure shown. Like-named read-outs stand apart in the source and are kept apart here.

Take `CO[C@H]1/C=C/O[C@@]2(C)Oc3c(C)c(O)c4c(c3C2=O)C2=NC3(CCN(CC(C)C)CC3)NC2=C(NC(=O)/C(C)=C/C=C/[C@H](C)[C@H](O)[C@@H](C)[C@@H](O)[C@@H](C)[C@H](OC(=O)N2CCN(C)C(C)C2)[C@@H]1C)C4=O` (stereo partly drawn) [UMN52]: the MIC in data set [1] (setting [3]) worked out at 0.097 µM (≈ 0.0917 µg/mL).
On the same count and under the same terms, the result for `CO[C@H]1/C=C/O[C@@]2(C)Oc3c(C)c(O)c4c(c3C2=O)C2=NC3(CCN(CC(C)C)CC3)NC2=C(NC(=O)/C(C)=C/C=C/[C@H](C)[C@H](O)[C@@H](C)[C@@H](O)[C@@H](C)[C@H](OC(=O)c2cc(Cl)c(Cl)cc2C(=O)O)[C@@H]1C)C4=O` [UMN99, 25-O-(6-carboxyl-3,4-dichlorobenzoyl)-25-O-desacetyrifabutin] reads 0.1 µM (≈ 0.102 µg/mL).
Same read-out and setting: the same measure for `CO[C@H]1/C=C/O[C@@]2(C)Oc3c(C)c(O)c4c(c3C2=O)C2=NC3(CCN(CC(C)C)CC3)NC2=C(NC(=O)/C(C)=C/C=C/[C@H](C)[C@H](O)[C@@H](C)[C@@H](O)[C@@H](C)[C@H](OC(=O)NCc2cn(-c3cccc(Br)c3)nn2)[C@@H]1C)C4=O` [UMN104]: 0.032 µM (≈ 0.0347 µg/mL).
On to `CO[C@H]1/C=C/O[C@@]2(C)Oc3c(C)c(O)c4c(c3C2=O)C2=NC3(CCN(CC(C)C)CC3)NC2=C(NC(=O)/C(C)=C/C=C/[C@H](C)[C@H](O)[C@@H](C)[C@@H](O)[C@@H](C)[C@H](OC(=O)Nc2ccccc2F)[C@@H]1C)C4=O` [UMN106], for which the MIC in data set [1] (setting [3]) is 0.034 µM (≈ 0.032 µg/mL).
For `CO[C@H]1/C=C/O[C@@]2(C)Oc3c(C)c(O)c4c(c3C2=O)C2=NC3(CCN(CC(C)C)CC3)NC2=C(NC(=O)/C(C)=C/C=C/[C@H](C)[C@H](O)[C@@H](C)[C@@H](O)[C@@H](C)[C@H](OC(=O)Nc2cccc(F)c2)[C@@H]1C)C4=O` [UMN107], the MIC in data set [1] (setting [3]) is 0.1 µM (≈ 0.0942 µg/mL).
Take `CO[C@H]1/C=C/O[C@@]2(C)Oc3c(C)c(O)c4c(c3C2=O)C2=NC3(CCN(CC(C)C)CC3)NC2=C(NC(=O)/C(C)=C/C=C/[C@H](C)[C@H](O)[C@@H](C)[C@@H](O)[C@@H](C)[C@H](OC(=O)Nc2ccc(F)cc2)[C@@H]1C)C4=O` [UMN108]: the MIC in data set [1] (setting [3]) was found to be 0.062 µM (≈ 0.0584 µg/mL).
Compound `CO[C@H]1/C=C/O[C@@]2(C)Oc3c(C)c(O)c4c(c3C2=O)C2=NC3(CCN(CC(C)C)CC3)NC2=C(NC(=O)/C(C)=C/C=C/[C@H](C)[C@H](O)[C@@H](C)[C@@H](O)[C@@H](C)[C@H](OC(=O)Nc2ccccn2)[C@@H]1C)C4=O` [UMN117] showed a ƒu in data set [2] of 0.9%. Moreover, the MIC in data set [1] (setting [4]) was 0.025 µM (≈ 0.0231 µg/mL).
In data set [2], `CO[C@H]1/C=C/O[C@@]2(C)Oc3c(C)c(O)c4c(c3C2=O)C2=NC3(CCN(CC(C)C)CC3)NC2=C(NC(=O)/C(C)=C/C=C/[C@H](C)[C@H](O)[C@@H](C)[C@@H](O)[C@@H](C)[C@H](OC(=O)Nc2ccnnc2)[C@@H]1C)C4=O` [UMN119] returned a ƒu of 6.1%. Moreover, the MIC in data set [1] (setting [4]) was 0.05 µM (≈ 0.0463 µg/mL).
For the compound `COc1ccc(S(=O)(=O)NC(=O)O[C@H]2[C@H](C)[C@H](O)[C@H](C)[C@@H](O)[C@@H](C)/C=C/C=C(\C)C(=O)NC3=C4NC5(CCN(CC(C)C)CC5)N=C4c4c(c(O)c(C)c5c4C(=O)[C@@](C)(O/C=C/[C@H](OC)[C@H]2C)O5)C3=O)cc1` [UMN122], the MIC in data set [1] (setting [3]) was 0.14 µM (≈ 0.143 µg/mL).
On the same count and under the same terms, the same measure for `CO[C@H]1/C=C/O[C@@]2(C)Oc3c(C)c(O)c4c(c3C2=O)C2=NC3(CCN(CC(C)C)CC3)NC2=C(NC(=O)/C(C)=C/C=C/[C@H](C)[C@H](O)[C@@H](C)[C@@H](O)[C@@H](C)[C@H](OC(=O)Nc2nccc3ccccc23)[C@@H]1C)C4=O` [UMN124]: 0.027 µM (≈ 0.0263 µg/mL).
Take `CO[C@H]1/C=C/O[C@@]2(C)Oc3c(C)c(O)c4c(c3C2=O)C2=NC3(CCN(CC(C)C)CC3)NC2=C(NC(=O)/C(C)=C/C=C/[C@H](C)[C@H](O)[C@@H](C)[C@@H](O)[C@@H](C)[C@H](OC(=O)Nc2ccc3cnccc3n2)[C@@H]1C)C4=O` [UMN127]: in data set [1] (setting [3]), the MIC was found to be 0.03 µM (≈ 0.0293 µg/mL).
The same measure, in the same setting: the same measure for `CO[C@H]1/C=C/O[C@@]2(C)Oc3c(C)c(O)c4c(c3C2=O)C2=NC3(CCN(CC(C)C)CC3)NC2=C(NC(=O)/C(C)=C/C=C/[C@H](C)[C@H](O)[C@@H](C)[C@@H](O)[C@@H](C)[C@H](OC(=O)Nc2cnn3ccccc23)[C@@H]1C)C4=O` [UMN129]: 0.044 µM (≈ 0.0424 µg/mL); for `CO[C@H]1/C=C/O[C@@]2(C)Oc3c(C)c(O)c4c(c3C2=O)C2=NC3(CCN(CC(C)C)CC3)NC2=C(NC(=O)/C(C)=C/C=C/[C@H](C)[C@H](O)[C@@H](C)[C@@H](O)[C@@H](C)[C@H](OC(=O)Nc2cnc3cc(C)nn3c2)[C@@H]1C)C4=O` [UMN130]: 0.049 µM (≈ 0.048 µg/mL); for `CO[C@H]1/C=C/O[C@@]2(C)Oc3c(C)c(O)c4c(c3C2=O)C2=NC3(CCN(CC(C)C)CC3)NC2=C(NC(=O)/C(C)=C/C=C/[C@H](C)[C@H](O)[C@@H](C)[C@@H](O)[C@@H](C)[C@H](OC(=O)Nc2cnc3ccccc3n2)[C@@H]1C)C4=O` [UMN134]: 0.03 µM (≈ 0.0293 µg/mL).
Take `CO[C@H]1/C=C/O[C@@]2(C)Oc3c(C)c(O)c4c(c3C2=O)C2=NC3(CCN(CC(C)C)CC3)NC2=C(NC(=O)/C(C)=C/C=C/[C@H](C)[C@H](O)[C@@H](C)[C@@H](O)[C@@H](C)[C@H](OC(=O)Nc2cn3ccccc3n2)[C@@H]1C)C4=O` [UMN136]: the MIC in data set [1] (setting [3]) was 0.061 µM (≈ 0.0588 µg/mL).
The same measure, in the same setting: the same measure for `CO[C@H]1/C=C/O[C@@]2(C)Oc3c(C)c(O)c4c(c3C2=O)C2=NC3(CCN(CC(C)C)CC3)NC2=C(NC(=O)/C(C)=C/C=C/[C@H](C)[C@H](O)[C@@H](C)[C@@H](O)[C@@H](C)[C@H](OC(=O)Nc2cc3ccccn3n2)[C@@H]1C)C4=O` [UMN142]: 0.033 µM (≈ 0.0318 µg/mL).
Still for that read-out and setting: the result for `CO[C@H]1/C=C/O[C@@]2(C)Oc3c(C)c(O)c4c(c3C2=O)C2=NC3(CCN(CC(C)C)CC3)NC2=C(NC(=O)/C(C)=C/C=C/[C@H](C)[C@H](O)[C@@H](C)[C@@H](O)[C@@H](C)[C@H](OC(=O)Nc2cn3ccsc3n2)[C@@H]1C)C4=O` [UMN145] reads 0.065 µM (≈ 0.0631 µg/mL).
`CO[C@H]1/C=C/O[C@@]2(C)Oc3c(C)c(O)c4c(c3C2=O)C2=NC3(CCN(CC(C)C)CC3)NC2=C(NC(=O)/C(C)=C/C=C/[C@H](C)[C@H](O)[C@@H](C)[C@@H](O)[C@@H](C)[C@H](OC(=O)NC2CCN(C)CC2)[C@@H]1C)C4=O` [UMN146] had a ƒu in data set [2] of 10.8%. Also, the MIC in data set [1] (setting [5]) amounted to 0.09 µM (≈ 0.0851 µg/mL).
As to `CO[C@H]1/C=C/O[C@@]2(C)Oc3c(C)c(O)c4c(c3C2=O)C2=NC3(CCN(CC(C)C)CC3)NC2=C(NC(=O)/C(C)=C/C=C/[C@H](C)[C@H](O)[C@@H](C)[C@@H](O)[C@@H](C)[C@H](OC(=O)NC2CCN(C(C)C)CC2)[C@@H]1C)C4=O` [UMN147], in data set [2], the ƒu turned out to be 7.5%. Besides, the minimal inhibitory concentration (MIC) in data set [1] (setting [5]) came out at 0.098 µM (≈ 0.0954 µg/mL).
The corresponding values for `CCN1CCC(NC(=O)O[C@H]2[C@H](C)[C@H](O)[C@H](C)[C@@H](O)[C@@H](C)/C=C/C=C(\C)C(=O)NC3=C4NC5(CCN(CC(C)C)CC5)N=C4c4c(c(O)c(C)c5c4C(=O)[C@@](C)(O/C=C/[C@H](OC)[C@H]2C)O5)C3=O)CC1` [UMN149] are 10.4% and 0.078 µM (≈ 0.0748 µg/mL).
Take `CO[C@H]1/C=C/O[C@@]2(C)Oc3c(C)c(O)c4c(c3C2=O)C2=NC3(CCN(CC(C)C)CC3)NC2=C(NC(=O)/C(C)=C/C=C/[C@H](C)[C@H](O)[C@@H](C)[C@@H](O)[C@@H](C)[C@H](OC(=O)NC2CCN(CC(C)C)CC2)[C@@H]1C)C4=O` [UMN150]: in data set [2], the ƒu stood at 3.6%. Further, in data set [1] (setting [5]), the MIC was 0.054 µM (≈ 0.0533 µg/mL).
